Target: T1, Human complement C1s enzyme (Homo sapiens, UniProt P09871)
T1 sequence (P09871 438-688 limits assumed): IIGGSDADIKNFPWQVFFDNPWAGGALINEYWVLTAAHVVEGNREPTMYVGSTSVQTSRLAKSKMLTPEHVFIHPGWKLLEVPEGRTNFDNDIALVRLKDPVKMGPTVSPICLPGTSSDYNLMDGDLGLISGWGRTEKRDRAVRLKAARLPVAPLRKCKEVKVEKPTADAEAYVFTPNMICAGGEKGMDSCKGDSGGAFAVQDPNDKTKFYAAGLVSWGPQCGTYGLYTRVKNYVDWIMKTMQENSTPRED
T1 sequence (P09871 16-437 partner limits assumed): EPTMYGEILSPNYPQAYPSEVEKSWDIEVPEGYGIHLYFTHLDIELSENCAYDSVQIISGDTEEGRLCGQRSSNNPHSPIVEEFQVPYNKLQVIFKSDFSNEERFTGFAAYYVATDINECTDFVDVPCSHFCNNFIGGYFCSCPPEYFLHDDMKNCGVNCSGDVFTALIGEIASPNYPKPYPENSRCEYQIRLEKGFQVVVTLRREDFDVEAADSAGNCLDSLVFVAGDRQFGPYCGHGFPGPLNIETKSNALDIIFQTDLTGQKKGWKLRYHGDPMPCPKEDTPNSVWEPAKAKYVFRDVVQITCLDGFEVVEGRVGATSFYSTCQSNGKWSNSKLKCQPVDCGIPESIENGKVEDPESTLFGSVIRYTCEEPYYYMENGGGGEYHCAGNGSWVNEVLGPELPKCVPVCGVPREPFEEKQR
Experiment: Human C1s enzyme assay
Format: biochemical
Conditions: human complement C1s enzyme 1.16 nM, substrate Z-L-Lys-SBzl 100 μM, 5 min preincubation; read-out: IC50 (Stars), C1s Inhibiting Activity
Procedure, shortened: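 Serum-purified human C1s (1.16 nM final) preincubated 5 min at room temperature with compound in 50 mM Tris, 1 M NaCl, pH 7.5. Z-L-Lys-SBzl and DTNB added at 100 μM each; A405 followed every 30 s for 30 min, and IC50 obtained by nonlinear regression of reaction rates.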

SMILES | IC50
CCc1ccc(Oc2cc(F)cc(C(=O)NCC(=O)N3C[C@@](F)(Cn4ccnc4)C[C@H]3C(=O)NCc3cc4cnccc4[nH]3)c2)cc1 [Compound 372, (2S,4S)-4-((1H-imidazol-1-yl)methyl)-N-((1H-pyrrolo[3,2-c]pyridin-2-yl)methyl)-1-((3-(4-ethylphenoxy)-5-fluorobenzoyl)glycyl)-4-fluoropyrrolidine-2-carboxamide] | < 100 nM
C[C@@]12C[C@@H]1N(C(=O)CNC(=O)c1ccc(Oc3ccccc3)cc1)[C@H](C(=O)NCc1ccc(Cl)cc1)C2 [Compound 373, (1S,3S,5S)-N-(4-chlorobenzyl)-5-methyl-2-((4-phenoxybenzoyl)glycyl)-2-azabicyclo[3.1.0]hexane-3-carboxamide] | > 1000 nM
Cc1ccc(Oc2cccc(C(=O)NCC(=O)N3C[C@H](OC(F)F)C[C@H]3C(=O)NCc3c(C)cc(N)nc3C)c2F)cc1 [Compound 374, (2S,4R)-N-((6-amino-2,4-dimethylpyridin-3-yl)methyl)-4-(difluoromethoxy)-1-((2-fluoro-3-(p-tolyloxy)benzoyl)glycyl) pyrrolidine-2-carboxamide] | > 1000 nM
Cc1ccc(Oc2cccc(C(=O)NCC(=O)N3N=CC[C@H]3C(=O)NCc3cc4cnccc4[nH]3)c2F)cc1 [Compound 375, (S)-N-((1H-pyrrolo[3,2-c]pyridin-2-yl)methyl)-1-((2-fluoro-3-(p-tolyloxy)benzoyl)glycyl)-4,5-dihydro-1H-pyrazole-5-carboxamide] | < 100 nM
O=C(NCC(=O)N1C[C@H](OC(F)F)C[C@H]1C(=O)NCc1cc2cnccc2[nH]1)c1cc(-c2ccc(Cl)cc2)cs1 [Compound 377, (2S,4R)-N-((1H-pyrrolo[3,2-c]pyridin-2-yl)methyl)-1-((4-(4-chlorophenyl)thiophene-2-carbonyl)glycyl)-4-(difluoromethoxy)pyrrolidine-2-carboxamide] | < 100 nM
O=C(NCC(=O)N1C[C@H](OC(F)F)C[C@H]1C(=O)NCc1cc2cnccc2[nH]1)c1cc(-c2ccccc2)cs1 [Compound 379, (2S,4R)-N-((1H-pyrrolo[3,2-c]pyridin-2-yl)methyl)-4-(difluoromethoxy)-1-((4-phenylthiophene-2-carbonyl)glycyl)pyrrolidine-2-carboxamide] | < 100 nM
O=C(NCC(=O)N1C[C@H](OC(F)F)C[C@H]1C(=O)NCc1cc2cnccc2[nH]1)c1cncc(N2CCOCC2)n1 [Compound 380, N-(2-((2S,4R)-2-(((1H-pyrrolo[3,2-c]pyridin-2-yl)methyl)carbamoyl)-4-(difluoromethoxy)pyrrolidin-1-yl)-2-oxoethyl)-6-morpholinopyrazine-2-carboxamide] | > 1000 nM
O=C(NCC(=O)N1C[C@H](OC(F)F)C[C@H]1C(=O)NCc1cc2cnccc2[nH]1)c1ccc(-c2ccccn2)s1 [Compound 381, (2S,4R)-4-(difluoromethoxy)-1-[2-[[5-(2-pyridyl)thiophene-2-carbonyl]amino]acetyl]-N-(1H-pyrrolo[3,2-c]pyridin-2-ylmethyl)pyrrolidine-2-carboxamide] | < 100 nM
COc1ccc(C(=O)NCC(=O)N2C[C@H](OC(F)F)C[C@H]2C(=O)NCc2cc3cnccc3[nH]2)cc1 [Compound 384, (2S,4R)-N-((1H-pyrrolo[3,2-c]pyridin-2-yl)methyl)-4-(difluoromethoxy)-1-((4-methoxybenzoyl)glycyl) pyrrolidine-2-carboxamide] | > 1000 nM
Cc1ccsc1Oc1cccc(C(=O)NCC(=O)N2C[C@H](OC(F)F)C[C@H]2C(=O)NCc2cc3cnccc3[nH]2)c1 [Compound 385, (2S,4R)-N-((1H-pyrrolo[3,2-c]pyridin-2-yl)methyl)-4-(difluoromethoxy)-1-((3-((3-methylthiophen-2-yl)oxy)benzoyl)glycyl) pyrrolidine-2-carboxamide] | < 100 nM

Continued, values first:

IC50 | SMILES
> 1000 nM | Cc1ccc(Oc2cccc(C(=O)NCC(=O)N3C[C@H](OC(F)F)C[C@H]3C(=O)Nc3cc4cnccc4s3)c2F)cc1 [Compound 376, (2S,4R)-4-(difluoromethoxy)-1-((2-fluoro-3-(p-tolyloxy)benzoyl)glycyl)-N-(thieno[3,2-c]pyridin-2-yl)pyrrolidine-2-carboxamide]
< 100 nM | O=C(NCC(=O)N1C[C@H](OC(F)F)C[C@H]1C(=O)NCc1cc2cnccc2[nH]1)c1cccc(N2Cc3ccccc3C2)c1 [Compound 378, (2S,4R)-N-((1H-pyrrolo[3,2-c]pyridin-2-yl)methyl)-4-(difluoromethoxy)-1-((3-(isoindolin-2-yl)benzoyl)glycyl)pyrrolidine-2-carboxamide]
100 to 1000 nM | COc1cccc(C(=O)NCC(=O)N2C[C@H](OC(F)F)C[C@H]2C(=O)NCc2cc3cnccc3[nH]2)c1 [Compound 382, (2S,4R)-N-((1H-pyrrolo[3,2-c]pyridin-2-yl)methyl)-4-(difluoromethoxy)-1-((3-methoxybenzoyl)glycyl) pyrrolidine-2-carboxamide]
< 100 nM | O=C(NCC(=O)N1C[C@H](OC(F)F)C[C@H]1C(=O)NCc1cc2cnccc2[nH]1)c1ccc(OC2CCCCC2)cc1 [Compound 383, (2S,4R)-N-((1H-pyrrolo[3,2-c]pyridin-2-yl)methyl)-1-((4-(cyclohexyloxy)benzoyl)glycyl)-4-(difluoromethoxy)pyrrolidine-2-carboxamide]

— patent US20260062443A1 (ALEXION PHARMACEUTICALS, INC., priority 2022, published 2026)
